Results: patent publication US7985072B2, “Method and apparatus for tooth rejuvenation and hard tissue modification” (Rejuvedent LLC, priority 2005, dated 2011)

Columns and labels:
[1] = Six-hour exposure of extracted teeth to gel or citric acid; conditions: +24° C.
Text: Control of etching using highly concentrated edible acid can be achieved by using different additives. The interaction between acid and hard tissue leads to a dissolution of mineral components and modification of organic components. Three types of dissolution are known: Type I, where enamel rods are removed preferentially, Type II, where the organic matrix is removed preferentially, and Type III, where both Type I and Type II dissolution take place. […] The present invention, proposes to control the etching process, using edible acid with a special additive. One of control mechanisms involves additives, including, but not limited to, the ions of Ca Cr, Ba Cd, Mg, P, SiF, and their compounds, such as PO4. Other non-organic or organic additives may also be used. Additions of such ion combinations may slow the dissolution of the inter-prismatic regions or may provide for re-crystallization of hydroxyapatite crystallites, or the building of new crystallites of fluroapatite. The use of such additives can be effective in the control of tooth etching, or in the preparation of the tooth surface for the application of a protective or cosmetic coating, or for the thermal re-crystallization of the tooth surface.
Extracted teeth with healthy enamel were used in the experiment. One half of enamel surface of each tooth was covered with a protective cover (“control side”). The other side (“treatment side”) was left unprotected. […]

[2] = test system: maxillary right central incisor of a volunteer; assay: Example 2: at-home tooth whitening treatment; conditions: for Normalized optical coefficient of reflection: before treatment 1
[3] = Depth of the etched (porous) enamel layer with aqueous citric acid solution, parameters of equation (1)
Text: The inventors conducted a series of tests to determine the optimal pH, temperature and time for tooth rejuvenation, and for designing various devices for the tooth rejuvenation procedure. […] The enamel surface is not homogeneous, it contains inorganic components, such as hydroxyapatite, in the form of crystals oriented towards its surface. The enamel surface also contains organic components, such as proteins. When the organic and inorganic components are exposed to an aqueous acid solution, such exposure leads to the deconstruction and removal of these components to a certain depth into the enamel, forming a superficial porous layer. Stains, bacteria and the weak components of the enamel are removed from the porous layer, bleached or destroyed by the acid. Exposure time, pH and the concentration and temperature of the solution all affect the depth of tissue treatment and structure of surface after treatment. The removal and bleaching of the organic component is important because this component contains the most pigment. The organic component is however, tightly bound to the inorganic component, which occurs during tooth formation and is not affected by factors such as frequency of tooth brushing, or the type of toothpaste used. Because of this, bleaching removes both the organic and the bonded inorganic components.
The ability of an aqueous acidic solution to deconstruct and dissolve both organic and inorganic components depends on the period of time, pH, concentration, and temperature at which the process occurs. The color of the enamel after stain removal and bleaching is determined by how closely the structure after etching matches the natural structure and how well light is scattered from the surface of the tooth. Remineralization is however, a slow process, so caution in carrying out the procedure is recommended, and it is desirable to protect the new surface with a hard material. To achieve this, the present invention proposes the use of a high concentration of acid to minimize the time of treatment. For a high concentration of acid to be used safely within the oral cavity, two fundamental safety concerns need to be addressed: firstly toxicity and secondly soft tissue damage. To completely eliminate the toxicity problem, especially for home use, we propose the use of an edible acid which is non-toxic when ingested. The volume of acid for any application in the present invention is limited to several cubic centimeters. After dissolution in saliva the concentration of the acid ingested will drop, and the pH will increase, which is typical for foodstuffs. A typical pH for food acids is 2.5 or more. We have studied the effect of a low pH (<2.5) edible acid on intact enamel.
The temperature of the acid is another parameter to be optimized for enamel etching when using a high concentration of acid. An increase in temperature increases the depth of etching due to two factors: first, it increases the diffusion coefficient and, second, the rate of the chemical reaction between the acid and the enamel due to Arrenius law. […] These graphs can be described by the following formula: […]
Here, hw is the depth of the porous layer of enamel in μm after t min of etching as a function of t. Parameters cc, ct, and D can be the functions of both temperature T and pH.
The parameters α, cc, and D were found using the best square fit.

[4] = test system: premolar teeth of a subject; assay: Example 1: in-office tooth whitening treatment
[5] = 180-minute exposure of tooth halves to citric acid solution or gel, then methylene blue; conditions: pH=1.5, +20° C., 180 minutes
Description: Exposure in both cases was for 180 minutes and the tooth was then washed in distilled water. […] The tooth was then exposed to an aqueous solution of methylene blue.

## O=C(O)CC(O)(CC(=O)O)C(=O)O [citric acid]
[1]
  hardness of treated surface (dental probe / versus control side): easily damaged by scratching with a dental probe
  predominant etching pattern: Type I etching
  specular reflection property of tooth surface: completely lost its specular reflection property
  whitening effect of treated sides: comparable
[2]; 1 months after treatment
  Normalized optical coefficient of reflection: 1.3 a.u.
[2]; 4 months after treatment
  Normalized optical coefficient of reflection: 1.15 a.u.
[2]; after 3 weeks of daily treatment (pH=1.5, room temperature, 2 minutes)
  Normalized optical coefficient of reflection: 1.34 a.u.
[2]; after three-week treatment
  change in enamel gloss and reflection: No visible change in enamel gloss and reflection
  improvement in tooth whitening (coefficient of reflection for white light) versus original color: 35%
[2]; after treatment or during review appointments
  dentinal hypersensitivity and change in gingival tissue: No dentinal hypersensitivity
[2]; daily 2 minutes for three weeks
  pain or discomfort throughout treatment: did not report any pain or discomfort
[2]; four month review visit
  detrimental changes in soft tissues or enamel (post-treatment caries): no detrimental changes
[2]; four months after treatment
  improvement compared with original coefficient of reflection: approximately 15%
[2]; one month after treatment
  whitening effect exceeding the original: 33%
[3]; 50° C., pH=1.5, from the presented graphs (exposure time 10 min)
  etched depth of the tooth enamel: 40 μm
[3]; T = 50° C., pH 1
  D, parameter of equation (1), thickness of porous (etched) layer of enamel: 94.035 μm^2/min
  α1, parameter of equation (1), thickness of porous (etched) layer of enamel: 1.069 μm/min
  α, parameter of equation (1), thickness of porous (etched) layer of enamel: 3.195 μm/min
[3]; T = 50° C., pH 2
  D, parameter of equation (1), thickness of porous (etched) layer of enamel: 4.646 μm^2/min
  α1, parameter of equation (1), thickness of porous (etched) layer of enamel: 0.559 μm/min
  α, parameter of equation (1), thickness of porous (etched) layer of enamel: 1.022 μm/min
[3]; T = 50° C., pH 2.5
  α1, parameter of equation (1), thickness of porous (etched) layer of enamel: −0.018 μm/min
  α, parameter of equation (1), thickness of porous (etched) layer of enamel: 0.211 μm/min
[3]; pH = 1.5, 20 °C
  D, parameter of equation (1), thickness of porous (etched) layer of enamel: 2.604 μm^2/min
  α1, parameter of equation (1), thickness of porous (etched) layer of enamel: 0.158 μm/min
  α, parameter of equation (1), thickness of porous (etched) layer of enamel: 0.524 μm/min
[3]; pH = 1.5, 37 °C
  D, parameter of equation (1), thickness of porous (etched) layer of enamel: 23.124 μm^2/min
  α1, parameter of equation (1), thickness of porous (etched) layer of enamel: 0.515 μm/min
  α, parameter of equation (1), thickness of porous (etched) layer of enamel: 1.751 μm/min
[3]; pH = 1.5, 40 °C
  D, parameter of equation (1), thickness of porous (etched) layer of enamel: 36.801 μm^2/min
  α1, parameter of equation (1), thickness of porous (etched) layer of enamel: 0.469 μm/min
  α, parameter of equation (1), thickness of porous (etched) layer of enamel: 1.921 μm/min
[3]; pH = 1.5, 45 °C
  D, parameter of equation (1), thickness of porous (etched) layer of enamel: 74.738 μm^2/min
  α1, parameter of equation (1), thickness of porous (etched) layer of enamel: 0.833 μm/min
  α, parameter of equation (1), thickness of porous (etched) layer of enamel: 2.767 μm/min
[3]; pH = 1.5, 50 °C
  D, parameter of equation (1), thickness of porous (etched) layer of enamel: 121.664 μm^2/min
  α1, parameter of equation (1), thickness of porous (etched) layer of enamel: 1.31 μm/min
  α, parameter of equation (1), thickness of porous (etched) layer of enamel: 3.755 μm/min
[3]; pH = 1.5, 60 °C
  D, parameter of equation (1), thickness of porous (etched) layer of enamel: 122.528 μm^2/min
  α1, parameter of equation (1), thickness of porous (etched) layer of enamel: 1.504 μm/min
  α, parameter of equation (1), thickness of porous (etched) layer of enamel: 4.124 μm/min
[4]; after treatment or during follow up appointments
  change in gingival tissue and hypersensitivity: No change in gingival tissue and no hypersensitivity
[4]; immediately after treatment
  gloss of treatment side versus control side: less glossy than the control side
[4]; pH=1.5, average +50° C., 10 minutes
  pain or discomfort throughout the treatment: did not report any pain or discomfort
[5]
  coloration by aqueous methylene blue after exposure: colored by methylene blue
  type of enamel etching: Type I etching
  whitening effect: strong whitening effect
